# Source: patent US11034725B2, “Compositions and methods for treating cardiovascular disease” (Genentech, Inc., priority 2016, dated 2021)
# pIC50: −log10 of the molar value. Numbered stars: 1 amine (or outer) side, 2 acyl side, 3 side chain; on linkers, the order of the positions; unused ones are H or OH. Square brackets hold non-standard residues; d marks the D form. Peptide text beside a SMILES is read from it. * marks the point of attachment. Butyryl(4-indol-3-yl) = O=C(CCCc1c[nH]c2ccccc12)*; Propanoyl(3-(4-F-phenyl)) = O=C(CCc1ccc(F)cc1)*; Propanoyl(3-(4-MeO-Ph)) = COc1ccc(CCC(=O)*)cc1; Propanoyl(3-(4-Cl-Ph)) = O=C(CCc1ccc(Cl)cc1)*; hArg = N=C(N)NCCCC[C@H](N)C(=O)O; Suc = O=C(CCC(=O)[*:2])[*:1]; X12 = O=C(CCCc1ccc(F)cc1)*; Morpholide = C1CN(*)CCO1; X27 = O=C(CCCN1CCOCC1)*; Pentanoyl = CCCCC(=O)*
# What was measured:
# [1] = target: PCSK9 (Homo sapiens, UniProt Q8NBP7); test: PCSK9/EGF(A) TR-FRET binding assay; settings: TR-FRET; Table 8E, additional compounds; read-out: PCSK9/EGF(A) IC50
# [2] = target: T1, PCSK9Δhelix (Homo sapiens, UniProt Q8NBP7); test: PCSK9Δhelix/Ab20 TR-FRET binding assay; settings: TR-FRET; Table 8E, additional compounds; read-out: PCSK9Δhelix/Ab20 IC50
# T1 construct: Human PCSK9 construct M1-Q692 with an engineered TEV site (residue deletion Y166, R167); made in house; host or cells: CHO
# T1 sequence (Q8NBP7 with tags, fused parts or gaps limits assumed): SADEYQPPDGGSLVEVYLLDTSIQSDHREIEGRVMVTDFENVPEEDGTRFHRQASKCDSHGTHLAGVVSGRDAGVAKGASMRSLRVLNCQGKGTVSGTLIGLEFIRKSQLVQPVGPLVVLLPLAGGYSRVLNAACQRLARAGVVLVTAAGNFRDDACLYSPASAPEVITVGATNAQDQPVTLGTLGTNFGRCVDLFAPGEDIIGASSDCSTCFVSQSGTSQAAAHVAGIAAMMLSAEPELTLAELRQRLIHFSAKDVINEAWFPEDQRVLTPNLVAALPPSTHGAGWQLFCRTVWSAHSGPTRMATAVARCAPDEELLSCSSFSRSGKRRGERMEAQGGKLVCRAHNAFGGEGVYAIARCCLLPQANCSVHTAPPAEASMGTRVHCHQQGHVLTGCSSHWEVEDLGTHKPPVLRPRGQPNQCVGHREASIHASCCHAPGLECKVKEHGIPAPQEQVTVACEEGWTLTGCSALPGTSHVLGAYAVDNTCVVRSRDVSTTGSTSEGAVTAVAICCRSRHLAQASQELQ
# T1 sequence (Q8NBP7 31-152 partner limits assumed): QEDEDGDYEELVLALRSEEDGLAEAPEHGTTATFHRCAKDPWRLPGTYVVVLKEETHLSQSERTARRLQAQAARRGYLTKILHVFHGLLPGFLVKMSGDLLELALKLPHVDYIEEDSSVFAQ
# Chain of PCSK9 (Q8NBP7 153-692): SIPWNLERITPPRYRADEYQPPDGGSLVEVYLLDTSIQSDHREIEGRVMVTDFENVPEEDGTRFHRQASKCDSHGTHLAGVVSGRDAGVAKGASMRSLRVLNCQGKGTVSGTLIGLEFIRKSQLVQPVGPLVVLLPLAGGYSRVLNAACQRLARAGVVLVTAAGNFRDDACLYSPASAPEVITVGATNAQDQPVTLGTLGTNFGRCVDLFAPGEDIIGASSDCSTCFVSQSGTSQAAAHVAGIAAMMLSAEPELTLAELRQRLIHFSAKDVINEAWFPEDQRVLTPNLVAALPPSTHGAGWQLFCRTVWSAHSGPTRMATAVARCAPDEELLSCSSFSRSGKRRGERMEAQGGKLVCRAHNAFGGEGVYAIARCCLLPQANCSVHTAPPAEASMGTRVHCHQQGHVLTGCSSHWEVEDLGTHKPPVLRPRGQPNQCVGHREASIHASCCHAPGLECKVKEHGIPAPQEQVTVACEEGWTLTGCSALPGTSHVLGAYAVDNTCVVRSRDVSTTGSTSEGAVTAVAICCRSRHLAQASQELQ
# Chain of PCSK9 (Q8NBP7 31-152 partner limits assumed): as the sequence (Q8NBP7 31-152 partner limits assumed) above
Compound,pIC50 [1],pIC50 [2]
"CCCCC(=O)N[C@@H](Cc1c[nH]c2ccccc12)C(=O)N[C@@H](CC(N)=O)C(=O)N[C@@H](CC(C)C)C(=O)N[C@H](C(=O)N[C@@H](CCCCNC(=N)N)C(=O)N[C@H](C(=O)NCC(=O)N[C@@H](CC(C)C)C(=O)N[C@@H](CC(C)C)C(=O)N[C@@H](CCCNC(=N)N)C(N)=O)[C@@H](C)CC)C(C)C [Compound 191, n-BuC(O)-WNLV(homoR)IGLLR-NH2] (Pentanoyl-WNLV[hArg]IGLLR-NH2)",≤ 4.30,5.89
CC[C@H](C)[C@H](NC(=O)[C@H](CCCCNC(=N)N)NC(=O)[C@@H](NC(=O)[C@H](CC(C)C)NC(=O)[C@H](CC(N)=O)NC(=O)[C@H](Cc1c[nH]c2ccccc12)NC(=O)CCCN1CCOCC1)C(C)C)C(=O)NCC(=O)N[C@@H](CC(C)C)C(=O)N[C@@H](CC(C)C)C(=O)N[C@@H](CCCNC(=N)N)C(N)=O [Compound 193] (X27-WNLV[hArg]IGLLR-NH2),≤ 4.30,5.82
CC[C@H](C)[C@H](NC(=O)[C@H](CCCCNC(=N)N)NC(=O)[C@@H](NC(=O)[C@H](CC(C)C)NC(=O)[C@H](CC(N)=O)NC(=O)[C@H](Cc1c[nH]c2ccccc12)NC(=O)CCC(=O)N1CCOCC1)C(C)C)C(=O)NCC(=O)N[C@@H](CC(C)C)C(=O)N[C@@H](CC(C)C)C(=O)N[C@@H](CCCNC(=N)N)C(N)=O [Compound 194] ({Morpholide-Suc}-WNLV[hArg]IGLLR-NH2),≤ 4.30,5.72
CC[C@H](C)[C@H](NC(=O)[C@H](CCCCNC(=N)N)NC(=O)[C@@H](NC(=O)[C@H](CC(C)C)NC(=O)[C@H](CC(N)=O)NC(=O)[C@H](Cc1c[nH]c2ccccc12)NC(=O)CCCc1ccc(F)cc1)C(C)C)C(=O)NCC(=O)N[C@@H](CC(C)C)C(=O)N[C@@H](CC(C)C)C(=O)N[C@@H](CCCNC(=N)N)C(N)=O [Compound 196] (X12-WNLV[hArg]IGLLR-NH2),5.14,5.85
CC[C@H](C)[C@H](NC(=O)[C@H](CCCCNC(=N)N)NC(=O)[C@@H](NC(=O)[C@H](CC(C)C)NC(=O)[C@H](CC(N)=O)NC(=O)[C@H](Cc1c[nH]c2ccccc12)NC(=O)CCc1ccc(OC)cc1)C(C)C)C(=O)NCC(=O)N[C@@H](CC(C)C)C(=O)N[C@@H](CC(C)C)C(=O)N[C@@H](CCCNC(=N)N)C(N)=O [Compound 197] ({Propanoyl(3-(4-MeO-Ph))}-WNLV[hArg]IGLLR-NH2),6.01,7.05
CC[C@H](C)[C@H](NC(=O)[C@H](CCCCNC(=N)N)NC(=O)[C@@H](NC(=O)[C@H](CC(C)C)NC(=O)[C@H](CC(N)=O)NC(=O)[C@H](Cc1c[nH]c2ccccc12)NC(=O)CCc1ccc(F)cc1)C(C)C)C(=O)NCC(=O)N[C@@H](CC(C)C)C(=O)N[C@@H](CC(C)C)C(=O)N[C@@H](CCCNC(=N)N)C(N)=O [Compound 198] ({Propanoyl(3-(4-F-phenyl))}-WNLV[hArg]IGLLR-NH2),5.77,6.60
CC[C@H](C)[C@H](NC(=O)[C@H](CCCCNC(=N)N)NC(=O)[C@@H](NC(=O)[C@H](CC(C)C)NC(=O)[C@H](CC(N)=O)NC(=O)[C@H](Cc1c[nH]c2ccccc12)NC(=O)CCc1ccc(Cl)cc1)C(C)C)C(=O)NCC(=O)N[C@@H](CC(C)C)C(=O)N[C@@H](CC(C)C)C(=O)N[C@@H](CCCNC(=N)N)C(N)=O [Compound 199] ({Propanoyl(3-(4-Cl-Ph))}-WNLV[hArg]IGLLR-NH2),6.01,6.70
CC[C@H](C)[C@H](NC(=O)[C@H](CCCCNC(=N)N)NC(=O)[C@@H](NC(=O)[C@H](CC(C)C)NC(=O)[C@H](CC(N)=O)NC(=O)[C@H](Cc1c[nH]c2ccccc12)NC(=O)CCCc1c[nH]c2ccccc12)C(C)C)C(=O)NCC(=O)N[C@@H](CC(C)C)C(=O)N[C@@H](CC(C)C)C(=O)N[C@@H](CCCNC(=N)N)C(N)=O [Compound 200] ({Butyryl(4-indol-3-yl)}-WNLV[hArg]IGLLR-NH2),5.49,6.17
